Results from ChEMBL document CHEMBL5137049, “Discovery of a Novel Small-Molecule Inhibitor Disrupting TRBP-Dicer Interaction against Hepatocellular Carcinoma via the Modulation of microRNA Biogenesis” (J Med Chem, 2022).
Active and inactive are the calls of the source. The calls are words filed in the database; no cut-off is given here.

Tests used:
[1] = test system: HepG2; test: Downregulation of miR-122 expression in human HepG2 cells at 10 uM incubated for 6 hrs by qRT-PCR analysis; type: functional
[2] = test system: HeLa; test: Downregulation of miR-21 expression in human HeLa cells at 10 uM incubated for 6 hrs by qRT-PCR analysis; type: functional
[3] = test system: HepG2; test: Upregulation of pre-miR-122 in human HepG2 cells at 10 uM incubated for 6 hrs by qRT-PCR analysis; type: functional, cell-based

`CCOC(=O)c1nc(-c2ccc(OC)cc2)oc1C` was tested, and the Activity [1] was 60%, the Activity [2] was 60% and the Activity [3] was “Active”.
